Reference: PubChem BioAssay AID1259407 (Chemical Carcinogenesis Research Information System (CCRIS), 2018)
Calls of active or inactive are those of the source. The rule behind the calls is not given here.

System: CCRIS mutagenicity, Ames/micronucleus/aberration tests
Assay: CCRIS mutagenicity studies
[1] = Test System: AMES SALMONELLA TYPHIMURIUM, Strain/Indicator: TA97, Metabolic Activation: HAMSTER, LIVER, S-9, AROCLOR 1254 (10%), Method: PREINCUBATION
[2] = Test System: AMES SALMONELLA TYPHIMURIUM, Strain/Indicator: TA97, Metabolic Activation: HAMSTER, LIVER, S-9, AROCLOR 1254 (30%), Method: PREINCUBATION
[3] = Test System: AMES SALMONELLA TYPHIMURIUM, Strain/Indicator: TA97, Metabolic Activation: NONE, Method: PREINCUBATION
[4] = Test System: AMES SALMONELLA TYPHIMURIUM, Strain/Indicator: TA97, Metabolic Activation: RAT, LIVER, S-9, AROCLOR 1254 (10%), Method: PREINCUBATION
[5] = Test System: AMES SALMONELLA TYPHIMURIUM, Strain/Indicator: TA97, Metabolic Activation: RAT, LIVER, S-9, AROCLOR 1254 (30%), Method: PREINCUBATION
[6] = Test System: AMES SALMONELLA TYPHIMURIUM, Strain/Indicator: TA98, Metabolic Activation: HAMSTER, LIVER, S-9, AROCLOR 1254 (10%), Method: PREINCUBATION
[7] = Test System: AMES SALMONELLA TYPHIMURIUM, Strain/Indicator: TA98, Metabolic Activation: HAMSTER, LIVER, S-9, AROCLOR 1254 (30%), Method: PREINCUBATION
[8] = Test System: AMES SALMONELLA TYPHIMURIUM, Strain/Indicator: TA98, Metabolic Activation: NONE, Method: PREINCUBATION
[9] = Test System: AMES SALMONELLA TYPHIMURIUM, Strain/Indicator: TA98, Metabolic Activation: RAT, LIVER, S-9, AROCLOR 1254 (10%), Method: PREINCUBATION
[10] = Test System: AMES SALMONELLA TYPHIMURIUM, Strain/Indicator: TA98, Metabolic Activation: RAT, LIVER, S-9, AROCLOR 1254 (30%), Method: PREINCUBATION
[11] = Test System: AMES SALMONELLA TYPHIMURIUM, Strain/Indicator: TA100, Metabolic Activation: HAMSTER, LIVER, S-9, AROCLOR 1254 (10%), Method: PREINCUBATION
[12] = Test System: AMES SALMONELLA TYPHIMURIUM, Strain/Indicator: TA100, Metabolic Activation: HAMSTER, LIVER, S-9, AROCLOR 1254 (30%), Method: PREINCUBATION
[13] = Test System: AMES SALMONELLA TYPHIMURIUM, Strain/Indicator: TA100, Metabolic Activation: NONE, Method: PREINCUBATION
[14] = Test System: AMES SALMONELLA TYPHIMURIUM, Strain/Indicator: TA100, Metabolic Activation: RAT, LIVER, S-9, AROCLOR 1254 (10%), Method: PREINCUBATION
[15] = Test System: AMES SALMONELLA TYPHIMURIUM, Strain/Indicator: TA100, Metabolic Activation: RAT, LIVER, S-9, AROCLOR 1254 (30%), Method: PREINCUBATION
[16] = Test System: AMES SALMONELLA TYPHIMURIUM, Strain/Indicator: TA1535, Metabolic Activation: HAMSTER, LIVER, S-9, AROCLOR 1254 (10%), Method: PREINCUBATION
[17] = Test System: AMES SALMONELLA TYPHIMURIUM, Strain/Indicator: TA1535, Metabolic Activation: HAMSTER, LIVER, S-9, AROCLOR 1254 (30%), Method: PREINCUBATION
[18] = Test System: AMES SALMONELLA TYPHIMURIUM, Strain/Indicator: TA1535, Metabolic Activation: NONE, Method: PREINCUBATION
[19] = Test System: AMES SALMONELLA TYPHIMURIUM, Strain/Indicator: TA1535, Metabolic Activation: RAT, LIVER, S-9, AROCLOR 1254 (10%), Method: PREINCUBATION
[20] = Test System: AMES SALMONELLA TYPHIMURIUM, Strain/Indicator: TA1535, Metabolic Activation: RAT, LIVER, S-9, AROCLOR 1254 (30%), Method: PREINCUBATION

Row | SMILES | mutagenic call [1] | mutagenic call [2] | mutagenic call [3] | mutagenic call [4] | mutagenic call [5] | mutagenic call [6] | mutagenic call [7] | mutagenic call [8] | mutagenic call [9] | mutagenic call [10] | mutagenic call [11] | mutagenic call [12] | mutagenic call [13] | mutagenic call [14] | mutagenic call [15] | mutagenic call [16] | mutagenic call [17] | mutagenic call [18] | mutagenic call [19] | mutagenic call [20] | further results
1 | Cc1ccccc1Br | inactive; negative | inactive; negative | inactive; negative | inactive; negative | inactive; negative | inactive; negative | inactive; negative | inactive; negative | inactive; negative | inactive; negative | inactive; negative | inactive; negative | inactive; negative | inactive; negative | inactive; negative | inactive; negative | inactive; negative | inactive; negative | inactive; negative | inactive; negative | mutagenic call (Test System: AMES SALMONELLA TYPHIMURIUM, Strain/Indicator: TA98, Metabolic Activation: RAT LIVER S-9, PHENOBARBITAL AND BETA-NAPHTHOFLAVONE, Method: PREINCUBATION): inactive; negative; mutagenic call (Test System: AMES SALMONELLA TYPHIMURIUM, Strain/Indicator: TA100, Metabolic Activation: RAT LIVER S-9, PHENOBARBITAL AND BETA-NAPHTHOFLAVONE, Method: PREINCUBATION): inactive; negative; mutagenic call (Test System: AMES SALMONELLA TYPHIMURIUM, Strain/Indicator: TA102, Metabolic Activation: NONE, Method: PREINCUBATION): inactive; negative; mutagenic call (Test System: AMES SALMONELLA TYPHIMURIUM, Strain/Indicator: TA102, Metabolic Activation: RAT LIVER S-9, PHENOBARBITAL AND BETA-NAPHTHOFLAVONE, Method: PREINCUBATION): inactive; negative; mutagenic call (Test System: AMES SALMONELLA TYPHIMURIUM, Strain/Indicator: TA104, Metabolic Activation: NONE, Method: PREINCUBATION): inactive; negative; mutagenic call (Test System: AMES SALMONELLA TYPHIMURIUM, Strain/Indicator: TA104, Metabolic Activation: RAT LIVER S-9, PHENOBARBITAL AND BETA-NAPHTHOFLAVONE, Method: PREINCUBATION): inactive; negative; mutagenic call (Test System: AMES SALMONELLA TYPHIMURIUM, Strain/Indicator: TA1535, Metabolic Activation: RAT LIVER S-9, PHENOBARBITAL AND BETA-NAPHTHOFLAVONE, Method: PREINCUBATION): inactive; negative; mutagenic call (Test System: AMES SALMONELLA TYPHIMURIUM, Strain/Indicator: TA1537, Metabolic Activation: HAMSTER, LIVER, S-9, AROCLOR 1254 (30%), Method: PREINCUBATION): inactive; negative; mutagenic call (Test System: AMES SALMONELLA TYPHIMURIUM, Strain/Indicator: TA1537, Metabolic Activation: NONE, Method: PREINCUBATION): inactive; negative; mutagenic call (Test System: AMES SALMONELLA TYPHIMURIUM, Strain/Indicator: TA1537, Metabolic Activation: RAT LIVER S-9, PHENOBARBITAL AND BETA-NAPHTHOFLAVONE, Method: PREINCUBATION): inactive; negative; mutagenic call (Test System: AMES SALMONELLA TYPHIMURIUM, Strain/Indicator: TA1537, Metabolic Activation: RAT, LIVER, S-9, AROCLOR 1254 (30%), Method: PREINCUBATION): inactive; negative; mutagenic call (Test System: E.COLI, Strain/Indicator: WP2UVRA/PKM101, Metabolic Activation: NONE, Method: PREINCUBATION): inactive; negative; mutagenic call (Test System: E.COLI, Strain/Indicator: WP2UVRA/PKM101, Metabolic Activation: RAT LIVER S-9, PHENOBARBITAL AND BETA-NAPHTHOFLAVONE, Method: PREINCUBATION): inactive; negative; mutagenic call (Test System: E.COLI, Strain/Indicator: WP2UVRA, Metabolic Activation: NONE, Method: PREINCUBATION): inactive; negative; mutagenic call (Test System: E.COLI, Strain/Indicator: WP2UVRA, Metabolic Activation: RAT LIVER S-9, PHENOBARBITAL AND BETA-NAPHTHOFLAVONE, Method: PREINCUBATION): inactive; negative
2 | Nc1cc(Cl)ccc1Cl | inactive; negative | inactive; negative | inactive; negative | inactive; negative | inactive; negative | inactive; negative | inactive; negative | inactive; negative | inactive; negative | inactive; negative | inactive; negative | inactive; negative | inactive; negative | inactive; negative | inactive; negative | inactive; negative | inactive; negative | inactive; negative | inactive; negative | inactive; negative | mutagenic call (Test System: UDS RODENT HEPATOCYTES, Strain/Indicator: THY INCORP (NON-S-PHASE), Metabolic Activation: NONE, Method: AUTORADIOGRAPHY): inactive; negative
3 | c1ccc2c(c1)c1ccccc1c1ccccc21 | – | – | – | – | – | – | – | – | – | – | – | – | – | – | – | – | – | – | – | – | mutagenic call (Test System: AMES SALMONELLA TYPHIMURIUM, Strain/Indicator: TA98, Metabolic Activation: RAT, LIVER, S-9, AROCLOR 1254, Method: FLUCTUATION): active; positive; mutagenic call (Test System: AMES SALMONELLA TYPHIMURIUM, Strain/Indicator: TA100, Metabolic Activation: RAT, LIVER, S-9, AROCLOR 1254, Method: STANDARD PLATE): active; positive
